Laboratory results from patent US12606540B2, “Triazolone compound” (MEDSHINE DISCOVERY INC., priority 2020, dated 2026).
Where two headings read alike, the source gives them in different places. One block for each molecule: values may come before it.

How the values were obtained:
DHODH enzyme = DHODH enzyme (Homo sapiens, UniProt Q02127); assay: DHODH enzyme inhibitory activity in vitro (resazurin fluorescence); assay type: biochemical; details: 5 nM DHODH, 15 μM L-DHO, 80 μM Resazurin
Excerpt: The DHODH inhibitory activity of the compounds was detected by the following experimental method, and the experimental results are as shown in Table 1.
DHODH uses flavin mononucleotide FMN to catalyze the oxidation of dihydrooratic acid DHO to produce oratic acid, while the re-oxidation of FMN requires the participation of coenzyme CoQ. In the experiment of detecting the DHODH enzyme activity, CoQ was replaced by Resazurin dye as the final electron acceptor in the enzyme activity reaction. Resazurin solution is blue, and the resorufin generated after reduction has red fluorescence, and the fluorescence signal can be detected under the 535 nm of excitation wavelength and the 590 nm of emission wavelength. The components of the reaction buffer used in the experiment were 100 mM Hepes pH 7.0, 150 mM NaCl, 0.3% CHAPS, 0.5 mg/mL BSA, 0.1 μM FMN and 1% DMSO. The final concentration of DHODH enzyme in the reaction system was 5 nM, and the final concentration of substrate L-DHO was 15 μM, the final concentration of indicator Resazurin was 80 μM. The components of the reaction stop buffer were 100 mM Hepes pH 7.0 and 5 mM Orotate. The specific method was as follows: 2-fold final concentration of the DHODH enzyme solution was mixed with the compound, incubated at room temperature for 20 min, 2-fold final concentration of the substrate mixture solution of L-DHO and resazurin was added and reacted, incubated at room temperature away from light for 45 min. Then the reaction was stopped by adding 2-fold final concentration of the reaction stop buffer to the reaction system, and incubated at room temperature for 10 min, the fluorescence signal of the reaction system was detected with EnVision under the condition of Ex/Em=535/590 nm.

[1] = system: influenza virus A/Weiss/43 (H1N1); assay: Influenza virus cytopathic effect (CPE) experiment in MDCK cells; assay type: cell-based; details: unidentified influenza virus, H1N1, 120 h, 5 days incubation, CCK8
[2] = Pharmacokinetic evaluation in mice (IV and PO); assay type: in vivo, female Balb/c mice; details: for AUC(0-inf) / AUC(0-t) / clearance / half-life / MRT last / Vd / Tmax / C0 / Cmax: female, Balb/c, mouse, plasma; for MRT last: read-out: MRT0-last; for Vd: read-out: VdSS
Experimental: Experiment process: 0.04 mg/mL of a clarified solution of the test compound in 5% DMSO/10% Solutol solution/85% water was injected into female Balb/c mice (overnight fasting, 7-9 weeks of age) via tail vein, with dosage of 0.2 mg/kg. 0.1 mg/mL of the test compound in 5% DMSO/10% Solutol solution/0.2% Tween80/84.8% water was administered by gavage to female Balb/c mice (overnight fasting, 7-9 weeks of age), with dosage of 1 mg/kg. About 30 μL of blood was collected from the jugular vein at 0.0833, 0.25, 0.5, 1.0, 2.0, 4.0, 8.0, 10 and 24 h and from the tail vein at 0.25, 0.5, 1.0, 2.0, 4.0, 8.0 and 24 h after administration for both groups of animals, and were placed in anticoagulation tubes with EDTA-K2, and the blood was separated by centrifugation to obtain plasma. Plasma concentrations were detected by LC-MS/MS, and relevant pharmacokinetic parameters were calculated using WinNonlin™ Version 6.3 (Pharsight, Mountain View, CA) pharmacokinetic software with a non-compartmental model linear logarithmic trapezoid method.

MDR1 (P-glycoprotein) = assay: Permeability evaluation on MDR1-MDCK II cell line; details: dog, MDCK-MDR1, pH 7.4
[3] = system: human peripheral blood mononuclear cells; assay: Proliferation inhibition of peripheral blood mononuclear cells (flow cytometry); assay type: cell-based; details: PBMC, PHA-M 5 μg/mL stimulation, 48 hours
Experimental: Flow cytometry was used to detect cell proliferation of human peripheral blood mononuclear cells.
• Cell complete medium: 445 mL of RPMI1640 cell culture+50 mL of fetal bovine serum+5 mL of double antibody • Buffer 1: 9.9 mL of phosphate buffer+0.1 mL of 10% bovine serum protein • Buffer 2: 10 mL of fetal bovine serum+490 mL of phosphate buffer 3.2 Cell Thawing • 3.2.1 20 mL of cell complete medium was added to a 50 mL of centrifuge tube and pre-heated in a 37° C. water bath for 5 minutes; • 3.2.2 the cell cryotubes were removed from the liquid nitrogen storage tank and placed on dry ice for 5-10 minutes to allow the liquid nitrogen to evaporate fully; • 3.2.3 the cell cryotubes were clamped with forceps and placed in the water bath, and shaken gently to thaw the frozen cells quickly; • 3.2.4 the thawed cells were transferred to the pre-heated cell complete medium with a pipette, centrifuged at 350 g for 5 min, then the supernatant was discarded, and the cells was resuspended by adding 10 mL of phosphate buffer; • 3.2.5 counting by cell counter, and cell viability and cell count were recorded. 3.3 Cell Labeling • 3.3.1 Cell proliferation labeling solution (CellTrace™ Violet, 1:1000 dilution) was prepared • 3.3.2 the above mixture was centrifuged at 350 g for 5 minutes, and the supernatant was discarded, then the cells (20×10^6/mL) were resuspended by adding Buffer 1, and the resuspended cells were gently blown by pipette, and an equal volume of cell proliferation labeling solution (prepared in 3.3.1) was added, and gently blown well by pipette; • 3.3.3 incubating in a 5% CO2, 37° C. cell incubator for 18 minutes; • 3.3.4 the 5-fold volume of cell complete medium was added and leaved at room temperature for 5 minutes to terminate the staining reaction; • 3.3.5 the above mixture was centrifuged at 350 g for 5 minutes, and the supernatant was discarded, then the cells were resuspended by adding 10 mL of cell complete medium, counted by cell counter, and cell viability and cell count were recorded; • 3.3.6 the above mixture was centrifuged at 350 g for 5 minutes, and the supernatant was discarded, then the corresponding volume of cell complete medium was added according to the cell counting results, and the density of the resuspended cells was 2×10^6/mL and was to be used. 3.4 Cell Proliferation Stimulation • 3.4.1 50 μL/well prepared cell suspension (1×10^5 cells/well), 50 μL of 4×PHA-M (the final concentration is 5 μg/mL), 50 μL of 4×test compound, 50 μL of cell complete medium were added to the wells of 96-well cell culture plate, and the corresponding control group was set up; (total volume of the reaction system is 200 μL) • 3.4.2 the cell culture plate was placed and incubated in a 5% CO2, 37° C. cell incubator for 48 hours. 3.5 Cell Proliferation Detection • 3.5.1 the above mixture was centrifuged at 350 g for 5 minutes and the supernatant was transferred to a new cell culture plate and stored at −80° C.; • 3.5.2 200 μL of Buffer 2 was add to the wells of the culture plate, and the above mixture was centrifuged at 350 g and the supernatant was discarded; • 3.5.3 cell dead or living staining solution (7-AAD, 1:100 dilution) was prepared with Buffer 2; • 3.5.4 100 μL/well of dead or living staining solution was added, and gently blown and mixed well by pipette, and stained at room temperature for 10 min; • 3.5.5 cell proliferation was detected by flow cytometry analyzer and analyzed by Flowjo software.

Sequence of DHODH enzyme (Q02127 whole entry): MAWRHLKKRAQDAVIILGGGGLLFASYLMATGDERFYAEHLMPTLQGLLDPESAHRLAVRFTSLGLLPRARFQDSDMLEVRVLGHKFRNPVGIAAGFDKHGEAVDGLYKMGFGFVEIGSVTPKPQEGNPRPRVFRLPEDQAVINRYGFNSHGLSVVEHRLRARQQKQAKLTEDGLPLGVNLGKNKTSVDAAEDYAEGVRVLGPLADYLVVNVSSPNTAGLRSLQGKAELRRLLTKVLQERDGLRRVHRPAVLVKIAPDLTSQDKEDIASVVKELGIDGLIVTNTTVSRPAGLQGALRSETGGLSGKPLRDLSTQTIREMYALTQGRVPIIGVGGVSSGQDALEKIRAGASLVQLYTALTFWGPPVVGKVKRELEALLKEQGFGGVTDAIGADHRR

Compound: CCn1c(CO)nn(-c2cc(O[C@@H](C)C(F)(F)F)c(/C(F)=C/c3c(F)cccc3Cl)cc2F)c1=O [Compound 1]
IC50 (DHODH enzyme): 0.71 nM
EC50 [1]: < 1 nM

Compound: CCn1c(CO)nn(-c2cc(O[C@@H](C)C(F)(F)F)c(/C(F)=C/c3c(F)cncc3Cl)cc2F)c1=O [Compound 2]
IC50 (DHODH enzyme): 3.9 nM
EC50 [1]: 20 nM

Compound: CCn1c(CO)nn(-c2cc(O[C@@H](C)C(F)(F)F)c(/C(F)=C/c3cccnc3OC)cc2F)c1=O [Compound 6]
IC50 (DHODH enzyme): 12.4 nM
EC50 [1]: 67 nM
Tlast ([2]; IV 0.2 mg/kg): 24.0 h
F ([2]; PO 1 mg/kg): 85.4%
Tlast ([2]; PO 1 mg/kg): 24.0 h
AUC(0-inf) ([2]; IV 0.2 mg/kg): 2.13 µM·h
AUC(0-t) ([2]; IV 0.2 mg/kg): 1.96 µM·h
clearance ([2]; IV 0.2 mg/kg): 0.188 L/h/kg
half-life ([2]; IV 0.2 mg/kg): 6.83 h
MRT last ([2]; IV 0.2 mg/kg): 5.93 h
Vd ([2]; IV 0.2 mg/kg): 1.53 L/kg
AUC(0-inf) ([2]; PO 1 mg/kg): 9.08 µM·h
AUC(0-t) ([2]; PO 1 mg/kg): 7.79 µM·h
Tmax ([2]; PO 1 mg/kg): 2 h
half-life ([2]; PO 1 mg/kg): 9.19 h
MRT last ([2]; PO 1 mg/kg): 7.76 h
C0 ([2]; IV 0.2 mg/kg): 0.64 µM
Cmax ([2]; PO 1 mg/kg): 0.935 µM
Papp A→B at 150 min, 2 μM (MDR1 (P-glycoprotein)): 37.2 nm/s
Papp B→A at 150 min, 2 μM (MDR1 (P-glycoprotein)): 35.5 nm/s
Papp at 150 min, 2 μM (MDR1 (P-glycoprotein)): 10 to 55 nm/s
efflux ratio at 150 min, 2 μM (MDR1 (P-glycoprotein)): 0.95

Compound: CCn1c(C(=O)O)nn(-c2cc(O[C@@H](C)C(F)(F)F)c(/C(F)=C/c3c(F)cncc3Cl)cc2F)c1=O [Compound 21]
IC50 (DHODH enzyme): 9 nM

Compound: CCn1c(CO)nn(-c2cc(OC(C)C(F)(F)F)c(C=Cc3ncccc3Cl)cc2F)c1=O (stereo not shown) [Compound 22]
IC50 (DHODH enzyme): 121 nM

Compound: CCn1c(CO)nn(-c2cc(O[C@@H](C)C(F)(F)F)c(/C(F)=C/c3cccnc3Cl)cc2F)c1=O [Compound 26]
IC50 (DHODH enzyme): 1.5 nM
EC50 [1]: 2.4 nM
IC50 [3]: 4.6 nM
Tlast ([2]; IV 0.2 mg/kg): 24 h
F ([2]; PO 1 mg/kg): 80.2%
AUC(0-inf) ([2]; IV 0.2 mg/kg): 2.86 µM·h
AUC(0-t) ([2]; IV 0.2 mg/kg): 2.29 µM·h
clearance ([2]; IV 0.2 mg/kg): 0.139 L/h/kg
half-life ([2]; IV 0.2 mg/kg): 9.68 h
MRT last ([2]; IV 0.2 mg/kg): 8.04 h
Vd ([2]; IV 0.2 mg/kg): 1.93 L/kg
AUC(0-inf) ([2]; PO 1 mg/kg): 13 µM·h
AUC(0-t) ([2]; PO 1 mg/kg): 9.2 µM·h
Tmax ([2]; PO 1 mg/kg): 1 h
half-life ([2]; PO 1 mg/kg): 14.8 h
MRT last ([2]; PO 1 mg/kg): 8.9 h
C0 ([2]; IV 0.2 mg/kg): 0.451 µM
Cmax ([2]; PO 1 mg/kg): 0.872 µM
Papp A→B at 150 min, 2 μM (MDR1 (P-glycoprotein)): 85.9 nm/s
Papp B→A at 150 min, 2 μM (MDR1 (P-glycoprotein)): 77.6 nm/s
Papp at 150 min, 2 μM (MDR1 (P-glycoprotein)): > 55 nm/s
efflux ratio at 150 min, 2 μM (MDR1 (P-glycoprotein)): 0.9

More lines, main results first:

IC50 (DHODH enzyme): 9 nM
Compound: CCn1c(CO)nn(-c2cc(O[C@@H](C)C(F)(F)F)c(/C=C/c3cccnc3OC)cc2F)c1=O [Compound 23]

IC50 (DHODH enzyme): 8 nM
Compound: CCn1c(C(=O)O)nn(-c2cc(O[C@@H](C)C(F)(F)F)c(/C(F)=C/c3ncccc3Cl)cc2F)c1=O [Compound 24]

IC50 (DHODH enzyme): 6 nM
Compound: CCn1c(CO)nn(-c2nc(O[C@@H](C)C(F)(F)F)c(/C(F)=C/c3ncccc3Cl)cc2F)c1=O [Compound 25]
IC50 [3]: 2 nM

IC50 (DHODH enzyme): 1.5 nM
Compound: CCn1c(CO)nn(-c2cc(O[C@@H](C)C(F)(F)F)c(/C(F)=C/c3cnccc3C)cc2F)c1=O [Compound 27]
